{"source": "paper PMC3849192", "about": "“A Simple Method for Assessing Free Brain/Free Plasma Ratios Using an In Vitro Model of the Blood Brain Barrier” (PLoS ONE, 2013)", "key": {"[1]": {"tested_on": "in vitro BBB model (co-culture of bovine brain capillary endothelial cells and rat glial cells)", "assay": "In vitro BBB co-culture model, Cu,br/Cu,pl ratio", "conditions": "for In vitro Cu,br/Cu,pl Mean 1 h: 2 µM in luminal compartment, abluminal/luminal concentration at 1 h; for In vitro Cu,br/Cu,pl Mean steady-state: steady-state ratio computed from 1 h data with the blue-norna steady-state calculator", "procedure": "Figure 1 Schematic diagram of the experimental protocol. After 12 days of coculture in cell culture medium, both compartments of the in vitro BBB model consisting of a coculture of brain capillary endothlial cells and rat primary glial cells were filled with Hepes-buffered Ringer’s solution and the compounds dissolved at 2 µM were added in the luminal compartment (i.e donor). The presence of glial cells in the abluminal compartment was used to reproduce the non specific binding to brain tisssue within the brain prenchyma in vivo. After 1 hour, aliquots were taken from both compartments. In vitro Cu,br/Cu,pl at 1 h were calculated by dividing the concentration in the abluminal compartment (∼Cu,br) by the concentration in the luminal compartment (∼Cu,pl) at 1 h. The experimental data at 1 h were computed using the blue-norna steady-state calculator to generate the in vitro steady-state Cu,br/Cu,pl.\nOne hour after the addition of compounds dissolved at 2 µM in the luminal (i.e upper) compartment, aliquots were taken from both compartments previously filled with Hepes-buffered Ringer’s solution at the beginning of the experiment. […] The concentrations in both compartments of the in vitro assay after 1 h were computed using […] blue-norna.com to generate the in vitro steady-state Cu,br/Cu,pl.\nThe method of Dehouck et al. was used with minor modifications (Fig. 1). Bovine brain endothelial cells isolated from capillary fragments were cocultured with primary mixed glial cells from newborn Sprague–Dawley rats. The glial cells were isolated according to the method of Booher and Sensenbrenner and cultured for 3 weeks, plated on the bottom of cell culture clusters containing six wells each. The endothelial cells were seeded onto collagen-coated polycarbonate cell culture inserts (4.7 cm^2) (Corning Incorp. NY, USA), which were placed in the wells containing glial cells. The medium used for the coculture was Dulbecco’s modified Eagle’s medium supplemented with 10% calf serum, 10% horse serum, 2 mmol/L glutamine, 50 mg/L gentamicin and 1 µg/L basic fibroblast growth factor (Sigma). The medium was changed every second day. Experiments were usually initiated after 12 days of co-culture.\nTo monitor the integrity of the endothelial cell monolayer, the marker molecule [^14C] sucrose was added to the solution at a concentration of 0.05 µCi/ml. At the start of the transport experiments, buffered Ringer’s solution (pH = 7.4) was added to wells with glial cells. Inserts with brain endothelial cells were placed in these wells and drug solutions at 2 µM were added to the donor compartment. The plates were incubated for 1 h in a polymix shaker at 37°C with a low shaking velocity. Aliquots were taken from the donor compartment in the beginning and at the end of the experiments. The receiver compartments were sampled at the end of the experiments.\nThe amount of radiotracer in the abluminal compartment was measured in a liquid scintillation analyser (Packard Instrument Company, Meriden, USA). […] The concentrations of the test compound in all samples were analysed by MS/MS.\nThe mean free brain/plasma ratios were calculated from three individual experiments. One hour ratios were calculated by dividing the drug concentration in the receiver compartment by the free drug concentration in the donor compartment after 1 h. The experimental data at one hour (i.e concentration in both compartment at the beginning of the experiment and after 1 h) were computed using the blue-norna® steady-state calculator (www.blue-norna.com) to predict the in vivo steady-state Cu,br/Cu,pl ratios. For further details on this calculation method see file S1.\nThe in vivo steady-state Cu,br/Cu,pl were predicted from the in vitro experimental data collected after one hour according to the following equation: […]\nCdonor, t and Creceiver, t are the concentration of drug in the donor and receiver chambers at time t."}, "[2]": {"assay": "Fraction unbound brain (fu,br), brain slice method", "conditions": "rat brain slices 300 µm, 1 µM, 5 h incubation", "procedure": "Rats (male Sprague-Dawley) were decapitated under isoflurane anesthesia and the brains were removed carefully and immersed in ice-cold oxygenated physiological buffer at pH7.4. A 6 mm coronal section was cut with a razor and mounted with cyanoacrylate glue onto the tray of the microslicer (DTK-Zero 1 Microslicer, Dosak) after which six to eight 300 µm coronal slices from striatal areas were prepared. […] The compounds were dissolved at 1 µM in the buffer and the solution was incubated with the slice for 5 h.\nAfter 5 h, the brain slices were weighed and homogenized in 9 volumes (w/v) of ECF buffer with a sonicator (SONICS VCX 500 and VCX 130). The slice homogenates in ECF buffer were stored at −20°C prior to analysis. The concentrations of the test compound in the brain slice homogenate and in the ECF buffer was determined by LC-MS/MS.\nThe unbound volume of distribution Vu,brain, or free fraction fu,brain was calculated according to the following equations: [drawing 1] [drawing 2] where Cslice, CECF and V0 are amount of drug in the slice, the drug concentration in the ECF (representing the drug concentration in the brain ECF, i.e. the free concentration), and the water adhesion of the brain slice. V0 has been estimated using ^14C -inulin in a separate experiment in which brain slices were incubated for 1, 2, and 4 min. V0 was obtained from brain slice uptake – inulin time profile (apparent zero-time intercept)."}, "[3]": {"assay": "Fraction unbound brain (fu,br), brain homogenate equilibrium dialysis", "conditions": "brain homogenate (10%), 1 µM, equilibrium dialysis 18 hrs at 37°C", "procedure": "The degree of brain binding was assessed by equilibrium dialysis. Brain homogenate (10%) was spiked with test compound at 1 µM in triplicate. […] The plate was then placed in a shaker/incubator to equilibrate for 18 hrs at 37°C. […] After the addition of 50 µl of buffer to the brain homogenate samples, 150 µl of acetonitrile was added to each sample. Finally, 50 µl of water was added to all buffer and brain homogenate samples. The plates were centrifuged and the supernatant analyzed by LC-MS/MS."}}, "data": [{"smiles": "CN1CCN(C2=Nc3cc(Cl)ccc3Nc3ccccc32)CC1", "note": "[Clozapine]", "values": [{"measurement": "In vitro Cu,br/Cu,pl Mean 1 h", "setting": "[1]", "result": 0.10}, {"measurement": "In vitro Cu,br/Cu,pl Mean 1 h", "setting": "[1]; listed as clozapine", "result": 0.103}, {"measurement": "In vitro Cu,br/Cu,pl Mean steady-state", "setting": "[1]", "result": 0.71}, {"measurement": "In vitro Cu,br/Cu,pl Mean steady-state", "setting": "[1]; listed as clozapine", "result": 0.713}, {"measurement": "fubrain (slice) Mean", "setting": "[2]", "result": 0.0100}, {"measurement": "fubrain (homog.) Mean", "setting": "[3]", "result": 0.0094}]}]}
